Source: ChEMBL document CHEMBL2062415, “Steroids from Commiphora mukul display antiproliferative effect against human prostate cancer PC3 cells via induction of apoptosis” (Bioorg Med Chem Lett, 2012)

Assays:
PC-3 [1] = assay: Cytotoxicity against human PC3 cells after 24 hrs by MTT assay; assay type: functional, cell-based; settings: PC-3, 24 h
DU-145 = assay: Cytotoxicity against human DU145 cells after 24 hrs by MTT assay; assay type: functional, cell-based; settings: DU-145, 24 h
K562 [2] = assay: Cytotoxicity against human K562 cells after 24 hrs by MTT assay; assay type: functional, cell-based; settings: K562, 24 h
MCF7 [3] = assay: Cytotoxicity against human MCF7 cells after 24 hrs by MTT assay; assay type: functional, cell-based; settings: MCF7, 24 h
PC-3 [4] = assay: Cytotoxicity against human PC3 cells assessed as cell viability at 10 uM after 24 hrs by MTT assay; assay type: functional; settings: PC-3, 24 h, read-out: Activity
K562 [5] = assay: Cytotoxicity against human K562 cells assessed as cell viability at 10 uM after 24 hrs by MTT assay; assay type: functional; settings: K562, 24 h, read-out: Activity
MCF7 [6] = assay: Cytotoxicity against human MCF7 cells assessed as cell viability at 10 uM after 24 hrs by MTT assay; assay type: functional; settings: MCF7, 24 h, read-out: Activity
PC-3 [7] = assay: Induction of apoptosis in human PC3 cells assessed as early apoptotic cells at 10 uM after 48 hrs by annexinV/propidium iodide staining-based FITC analysis relative to control; assay type: functional
PC-3 [8] = assay: Induction of apoptosis in human PC3 cells assessed as late apoptotic cells at 10 uM after 48 hrs by annexinV/propidium iodide staining-based FITC analysis relative to control; assay type: functional
PC-3 [9] = assay: Induction of apoptosis in human PC3 cells assessed as necrotic cells at 10 uM after 48 hrs by annexinV/propidium iodide staining-based FITC analysis relative to control; assay type: functional
PC-3 [10] = assay: Induction of apoptosis in human PC3 cells assessed as early apoptotic cells at 20 uM after 48 hrs by annexinV/propidium iodide staining-based FITC analysis relative to control; assay type: functional
PC-3 [11] = assay: Induction of apoptosis in human PC3 cells assessed as late apoptotic cells at 20 uM after 48 hrs by annexinV/propidium iodide staining-based FITC analysis relative to control; assay type: functional
PC-3 [12] = assay: Induction of apoptosis in human PC3 cells assessed as necrotic cells at 20 uM after 48 hrs by annexinV/propidium iodide staining-based FITC analysis relative to control; assay type: functional
PC-3 [13] = assay: Induction of apoptosis in human PC3 cells assessed as early apoptotic cells at 40 uM after 48 hrs by annexinV/propidium iodide staining-based FITC analysis relative to control; assay type: functional
PC-3 [14] = assay: Induction of apoptosis in human PC3 cells assessed as late apoptotic cells at 40 uM after 48 hrs by annexinV/propidium iodide staining-based FITC analysis relative to control; assay type: functional
PC-3 [15] = assay: Induction of apoptosis in human PC3 cells assessed as necrotic cells at 40 uM after 48 hrs by annexinV/propidium iodide staining-based FITC analysis relative to control; assay type: functional
PC-3 [16] = assay: Cell cycle arrest in human PC3 cells assessed as accumulation at G0/G1 phase at 10 uM after 48 hrs by propidium iodide staining-based flow cytometric analysis relative to control; assay type: functional
PC-3 [17] = assay: Cell cycle arrest in human PC3 cells assessed as accumulation at S phase at 10 uM after 48 hrs by propidium iodide staining-based flow cytometric analysis relative to control; assay type: functional
PC-3 [18] = assay: Cell cycle arrest in human PC3 cells assessed as accumulation at G2/M phase at 10 uM after 48 hrs by propidium iodide staining-based flow cytometric analysis relative to control; assay type: functional
PC-3 [19] = assay: Cell cycle arrest in human PC3 cells assessed as accumulation at G0/G1 phase at 20 uM after 48 hrs by propidium iodide staining-based flow cytometric analysis relative to control; assay type: functional
PC-3 [20] = assay: Cell cycle arrest in human PC3 cells assessed as accumulation at S phase at 20 uM after 48 hrs by propidium iodide staining-based flow cytometric analysis relative to control; assay type: functional
PC-3 [21] = assay: Cell cycle arrest in human PC3 cells assessed as accumulation at G2/M phase at 20 uM after 48 hrs by propidium iodide staining-based flow cytometric analysis relative to control; assay type: functional
PC-3 [22] = assay: Cell cycle arrest in human PC3 cells assessed as accumulation at G0/G1 phase at 40 uM after 48 hrs by propidium iodide staining-based flow cytometric analysis relative to control; assay type: functional
PC-3 [23] = assay: Cell cycle arrest in human PC3 cells assessed as accumulation at S phase at 40 uM after 48 hrs by propidium iodide staining-based flow cytometric analysis relative to control; assay type: functional
PC-3 [24] = assay: Cell cycle arrest in human PC3 cells assessed as accumulation at G2/M phase at 40 uM after 48 hrs by propidium iodide staining-based flow cytometric analysis relative to control; assay type: functional
PC-3 [25] = assay: Induction of apoptosis in human PC3 cells assessed as early apoptotic cells at 30 uM after 48 hrs by annexinV/propidium iodide staining-based FITC analysis relative to control; assay type: functional
PC-3 [26] = assay: Induction of apoptosis in human PC3 cells assessed as late apoptotic cells at 30 uM after 48 hrs by annexinV/propidium iodide staining-based FITC analysis relative to control; assay type: functional
PC-3 [27] = assay: Induction of apoptosis in human PC3 cells assessed as necrotic cells at 30 uM after 48 hrs by annexinV/propidium iodide staining-based FITC analysis relative to control; assay type: functional
PC-3 [28] = assay: Cell cycle arrest in human PC3 cells assessed as accumulation at G0/G1 phase after 48 hrs by propidium iodide staining-based flow cytometric analysis; assay type: functional
PC-3 [29] = assay: Cell cycle arrest in human PC3 cells assessed as accumulation at G0/G1 phase at 30 uM after 48 hrs by propidium iodide staining-based flow cytometric analysis relative to control; assay type: functional
PC-3 [30] = assay: Cell cycle arrest in human PC3 cells assessed as accumulation at S phase at 30 uM after 48 hrs by propidium iodide staining-based flow cytometric analysis relative to control; assay type: functional
PC-3 [31] = assay: Cell cycle arrest in human PC3 cells assessed as accumulation at G2/M phase at 30 uM after 48 hrs by propidium iodide staining-based flow cytometric analysis relative to control; assay type: functional

Compound	IC50 (PC-3 [1])	IC50 (DU-145)	IC50 (K562 [2])	IC50 (MCF7 [3])	viability at 10 µM (PC-3 [4])	viability at 10 µM (K562 [5])	viability at 10 µM (MCF7 [6])	Activity (PC-3 [10])	Activity (PC-3 [11])	Activity (PC-3 [12])	Activity (PC-3 [13])	Activity (PC-3 [14])	Activity (PC-3 [15])	Activity (PC-3 [19])	Activity (PC-3 [20])	Activity (PC-3 [21])	Activity (PC-3 [22])	Activity (PC-3 [23])	Activity (PC-3 [24])	further results
CC[C@H](/C=C/[C@@H](C)[C@H]1CC[C@H]2[C@@H]3CC=C4C[C@@H](O)CC[C@]4(C)[C@H]3CC[C@]12C)C(C)C [STIGMASTEROL]	18.3 µM	22.7 µM	11.1 µM	21.4 µM	60%	43%	68%	2.3%	3.77%	1.51%	2.73%	5.42%	2.07%	51.41%	30.4%	18.19%	50.58%	36.4%	21.03%	Activity (PC-3 [7]): 2.78%; Activity (PC-3 [8]): 3.18%; Activity (PC-3 [9]): 1.05%; Activity (PC-3 [16]): 52.07%; Activity (PC-3 [17]): 26.9%; Activity (PC-3 [18]): 21.03%
CC[C@H](/C=C/[C@@H](C)[C@H]1CC[C@H]2[C@@H]3CC=C4C[C@@H](O)CC[C@]4(C)[C@H]3[C@H](O)C[C@]12C)C(C)C	32.4 µM	46.8 µM	7.18 µM	13.5 µM	94.5%	43%	68%	1.77%	1.91%	0.96%	1.32%	2.49%	1.52%	59.89%	21.63%	18.47%	76.37%	11.24%	12.39%	Activity (PC-3 [25]): 1.14%; Activity (PC-3 [26]): 2.95%; Activity (PC-3 [27]): 1.41%; Activity (PC-3 [28]): Dose-dependent effect; Activity (PC-3 [29]): 70.27%; Activity (PC-3 [30]): 16.4%; Activity (PC-3 [31]): 13.33%
COc1cccc2c1C(=O)c1c(O)c3c(c(O)c1C2=O)C[C@@](O)(C(=O)CO)C[C@@H]3O[C@H]1C[C@H](N)[C@H](O)[C@H](C)O1 [DOXORUBICIN]	8.46 µM	13.2 µM	3.79 µM	1.37 µM	–	–	–	–	–	–	–	–	–	–	–	–	–	–	–	–
C/C=C1\C(=O)C[C@H]2[C@@H]3CCC4=CC(=O)CC[C@]4(C)[C@H]3CC[C@]12C [GUGGULSTERONE]	–	–	–	–	80%	84%	65%	–	–	–	–	–	–	–	–	–	–	–	–	–
